Results from ChEMBL document CHEMBL1128187, “1 alpha,25-dihydroxyvitamin D3 analogs featuring aromatic and heteroaromatic rings: design, synthesis, and preliminary biological testing” (1995).

Tests used:
Assay type in all cases: functional
Rattus norvegicus [1] = species on record: Rattus norvegicus; assay: Patch clamp determination of calcium current in rat Osteosarcoma cells at 0.5 nM
Rattus norvegicus [2] = species on record: Rattus norvegicus; assay: Patch clamp determination of calcium current in rat Osteosarcoma cells at 5.0 nM
Rattus norvegicus [3] = species on record: Rattus norvegicus; assay: Patch clamp determination of calcium current in rat Osteosarcoma cells at 50.0 nM

Q: With C[C@H](CCCC(C)(C)O)[C@H]1CC[C@H]2C(c3ccc(CO)c(CO)c3)=CCC[C@]12C as the compound, how does the “Ca2+ current” value (Rattus norvegicus [1]) read?
A: -0.08 mV

Q: What about the “Ca2+ current” value (Rattus norvegicus [2]) of the same compound?
A: 1.45 mV

Q: What about the “Ca2+ current” value (Rattus norvegicus [3]) of the same compound?
A: 7.03 mV

Q: For C[C@@H](COCCCC(C)(C)O)[C@H]1CC[C@H]2C(c3ccc(CO)c(CO)c3)=CCC[C@]12C, which “Ca2+ current” value (Rattus norvegicus [1]) is on record?
A: 0.02 mV

Q: And the “Ca2+ current” value (Rattus norvegicus [2])?
A: 0.15 mV

Q: And the “Ca2+ current” value (Rattus norvegicus [3])?
A: 0.63 mV

Q: Which results are given for C=C1/C(=C\C=C2/CCC[C@]3(C)[C@@H]([C@H](C)CCCC(C)(C)O)CC[C@@H]23)C[C@@H](O)C[C@@H]1O [CALCITRIOL]?
A: Ca2+ current (Rattus norvegicus [1]): 5.73 mV; Ca2+ current (Rattus norvegicus [2]): 9.79 mV; Ca2+ current (Rattus norvegicus [3]): 10.2 mV
